{
  "source": "patent US12576059B2",
  "about": "“Methods and compositions for treatment of inflammatory disease” (priority 2021, dated 2026)",
  "key": {"[1]": {"parameters": "species or system mice", "conditions": "in vivo", "method": "Male and Female BALB/c and C57BL/6 mice were provided with standard environmental conditions i.e., 22±1° C., 55±5% humidity and 12 h light/dark cycle with free food and water access. At the age of six weeks, animals were split into 8 groups (n=160 total, 20 of each gender) and were continuously fed ad libitum on the diet containing either H-AA or D-AA for 2, 4, 6 or 8 weeks at the daily rate of ca. 5 g of diet per mouse for the duration of the study. The other two groups of animals (n=40, 20 of each gender) received neither PUFA-enriched diets nor LPS served as controls. The body weight and food intake were measured once a week. […]\nThe relative ratio of H-AA to D-AA was determined by gas chromatography (GC) coupled to chemical ionization mass spectrometry. […]\nAs the first step to test this hypothesis, we studied the metabolic effect of such a dietary supplementation. We determined the actual content of D-AA and then performed a washout experiment after a long period of supplementation by switching from D-AA to H-AA diet by MS analysis of several mouse tissues in the AA-diet fed mice. […]"}, "healthy mice": {"system": "healthy mice", "conditions": "mouse, in vivo", "method": "Mouse diet was from Research Diets (New Brunswick, NJ) based on fat-free AIN-93G. Fat was added at 11.3% by weight total fat and 0.25% either normal H-AA or D-AA respectively (Table 5).\nMale and Female BALB/c and C57BL/6 mice were provided with standard environmental conditions i.e., 22±1° C., 55±5% humidity and 12 h light/dark cycle with free food and water access. At the age of six weeks, animals were split into 8 groups (n=160 total, 20 of each gender) and were continuously fed ad libitum on the diet containing either H-AA or D-AA for 2, 4, 6 or 8 weeks at the daily rate of ca. 5 g of diet per mouse for the duration of the study. The other two groups of animals (n=40, 20 of each gender) received neither PUFA-enriched diets nor LPS served as controls. The body weight and food intake were measured once a week. After completing the appropriate diet course, half of the mice in each group (10 females and 10 males) (i) underwent the procedure of bronchoalveolar lavage (BAL) to accomplish cytological smears, (ii) were subjected to tissue harvesting and collection of colon contents (after humane euthanasia with lethal dose of sodium thiopental, 100 mg/kg intravenously). On the ninth week of this diet course, the other half of the group was administered 1 mg/kg of intranasal (IN) LPS from Escherichia coli O111:B4 (Sigma Aldrich) 24 hours prior to BAL and subsequent euthanasia. 40 D-AA fed animals (20 males, 20 females) were switched to the H-AA diet for washout experiments. […]\nLung, stomach and colon samples were fixed with 4% formaldehyde (freshly prepared from paraformaldehyde), paraffin embedded and cut into 2-4 μm sections. For routine histology, all fixed tissue sections were stained with hematoxylin-eosin (H&E). All slides were evaluated at 10 fields each using a Genetic Pro Bino light microscope (A) and photographed with a digital camera (Delta Optical). Stomach and colon tissue sections were analyzed for signs of active and chronic inflammation, formation of lymph follicles, and hyperplasia of epithelial cells. The severity of lung injury was scored according to lung pathological changes, including interalveolar and perivascular hemorrhages, peri-vascular and peribronchial infiltration, perivascular edema, thickness of alveolar wall, alveolar space value, and emphysematous transformations. Lung tissue samples were additionally stained with commercially available Martius Scarlet Blue (MSB) stain kit (Avantik, USA) for fibrin visualization. The presence of homogeneous fibrin masses of yellow, pink or red color in the lung blood vessels were interpreted as thrombotic masses. […]\nCell free BAL fluid supernatants as well as colon tissue samples were analyzed using commercially available Mouse IL-1B ELISA Kit (R&D systems, Lot P265854, USA) and the Biotek ELx-808 microplate reader (Biotek, USA) according to the instructions recommended by the manufacturer)."}},
  "data": [
    {"smiles": "[2H]C([2H])(/C=C\\CCCCC)/C=C\\C([2H])([2H])/C=C\\C([2H])([2H])/C=C\\CCCC(=O)O", "note": "[D-AA, 7,7,10,10,13,13-D6-arachidonic acid]", "values": [
      {"measurement": "incorporation of the deuterated form", "setting": "[1]; both, BALB/c and C57BL/6, mouse, 12 weeks", "value": "more than 60%"},
      {"measurement": "washout with H-AA feeding", "setting": "[1]; mouse", "value": "more rapid than brain"},
      {"measurement": "alveolar spaces", "setting": "healthy mice", "value": "No relevant changes"},
      {"measurement": "average thickness of interalveolar septa, H-AA versus D-AA", "setting": "healthy mice", "value": "did not significantly differ"},
      {"measurement": "tolerability", "setting": "healthy mice", "value": "well tolerated without apparent adverse reactions"}
    ]}
  ]
}
